Each structure is given as a SMILES string.

Assay [1] has as its target T1, human recombinant FAAH (Homo sapiens, UniProt O00519).
T1 sequence (O00519 1-579): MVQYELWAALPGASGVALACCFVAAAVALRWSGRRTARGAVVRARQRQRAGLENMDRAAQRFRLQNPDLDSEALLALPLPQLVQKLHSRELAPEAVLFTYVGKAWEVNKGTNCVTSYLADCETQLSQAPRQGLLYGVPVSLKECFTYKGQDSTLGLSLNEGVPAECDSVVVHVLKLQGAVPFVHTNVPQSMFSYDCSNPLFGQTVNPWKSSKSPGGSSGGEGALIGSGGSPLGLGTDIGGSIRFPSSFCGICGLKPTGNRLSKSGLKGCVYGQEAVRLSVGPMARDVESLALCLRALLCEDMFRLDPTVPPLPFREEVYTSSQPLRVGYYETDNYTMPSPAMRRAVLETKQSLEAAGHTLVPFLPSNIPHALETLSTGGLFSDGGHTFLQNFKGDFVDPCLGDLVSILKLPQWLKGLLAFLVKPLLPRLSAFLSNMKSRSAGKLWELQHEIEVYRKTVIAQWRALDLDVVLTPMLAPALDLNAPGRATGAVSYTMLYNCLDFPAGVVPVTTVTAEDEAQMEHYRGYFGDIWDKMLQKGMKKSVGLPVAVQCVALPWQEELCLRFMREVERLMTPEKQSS
The experiment in a line: biochemical.

For assay [2], the system named is [3H]anandamide uptake by cultured CCF-STTG1 astrocytoma cells. Description: anandamide transport assay. As to conditions: concentrations up to 20 μmol/L.
In assay [3] the target is T2, CB2 receptors (Rattus norvegicus, UniProt Q9QZN9).
T2 sequence (Q9QZN9 1-360): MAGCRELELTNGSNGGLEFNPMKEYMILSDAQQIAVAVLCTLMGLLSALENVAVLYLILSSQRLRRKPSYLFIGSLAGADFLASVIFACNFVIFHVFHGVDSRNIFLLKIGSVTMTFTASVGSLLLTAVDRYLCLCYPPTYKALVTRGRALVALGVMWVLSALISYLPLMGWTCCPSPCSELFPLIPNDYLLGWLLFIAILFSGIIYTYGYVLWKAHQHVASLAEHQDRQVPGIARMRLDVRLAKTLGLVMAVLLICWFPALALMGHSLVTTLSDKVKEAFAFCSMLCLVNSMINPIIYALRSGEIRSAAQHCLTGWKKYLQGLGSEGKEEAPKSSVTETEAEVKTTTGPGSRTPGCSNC
Description: radioligand displacement, [3H]CP,55940, rat spleen membranes. (In general: Loss of bound radioactivity is the signal in a displacement assay; it reports binding, not function.)

By IC50 is commonly meant the concentration that inhibits the measured activity by half. The Ki is a dissociation constant, usually derived from enzyme kinetics or from competition with a known ligand. Read a high Ki as a looser hold on the target. On to `O=S(=O)(F)CCCCCc1ccc(O)cc1` [AM3506, 5-(4-hydroxyphenyl)pentanesulfonyl fluoride], for which, in assay [1], the IC50 is 48 nM. Also, the “effect on anandamide transport” value in assay [2] is “did not affect”. The Ki in assay [3] came to 192 nM.

Values taken from publication PMC3003779 (Chemistry & biology, 2010).
